# In patent US6355799B1, “Substituted benzene compounds, process for their preparation, and herbicidal and defoliant compositions containing them” (ISK Americas Incorporated, priority 1997, dated 2002):
# Experiments:
# Type in all cases: in vivo
# [1] = system: field corn (Zea mays L., var. Dekalb 535, CORN); assay: Pre-emerge test, crop safety; details: rated 14 days after application, 0 = no damage, 100 = complete death
# Summary of the method: (§1)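 Plants grown in 10 cm pots of sandy loam mix received acetone-dissolved compounds through a moving flat-fan nozzle. Doses ranged from 15 to 1000 g ai/ha. Pre-emerge pots were seeded one day earlier, post-emerge pots 8–21 days earlier. Fourteen days on, each pot was graded 0–100 for damage.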
# [2] = system: upland rice (Oryza sp., var. Tebonnet, RICE); assay: Pre-emerge test, crop safety; details: rated 14 days after application, 0 = no damage, 100 = complete death
# Summary of the method: as §1
# [3] = system: field corn (Zea mays L., var. Dekalb 535, CORN); assay: Post-emerge test, crop safety; details: post-emerge, 14 days after application, rating scale 0-100
# Summary of the method: (§2)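 Each test used a mechanized track sprayer delivering 187 l/ha of acetone solution at 15–1000 g ai/ha. Post-emerge foliage at 2–3 leaves was treated with added 0.25% v/v non-ionic surfactant and bottom-watered only. Injury was assessed on day 14, where 100 means total kill.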
# [4] = system: upland rice (Oryza sp., var. Tebonnet, RICE); assay: Post-emerge test, crop safety; details: post-emerge, 14 days after application, rating scale 0-100
# Summary of the method: as §2
# [5] = system: barnyardgrass (Echinochloa crus-galli, ECHCG); assay: Pre-emerge test, greenhouse herbicide activity screening; details: rated 14 days after application, 0 = no damage, 100 = complete death
# Summary of the method: as §1
# [6] = system: green foxtail (Setaria viridis, SETVI); assay: as above; details: rated 14 days after application, 0 = no damage, 100 = complete death
# Summary of the method: as §1
# [7] = system: sicklepod (Cassia obtusifolia, CASOB); assay: as above; details: rated 14 days after application, 0 = no damage, 100 = complete death
# Summary of the method: as §1
# [8] = system: lambsquarters (Chenopodium album, CHEAL); assay: as above; details: rated 14 days after application, 0 = no damage, 100 = complete death
# Summary of the method: as §1
# [9] = system: velvetleaf (Abutilon theophrasti, ABUTH); assay: as above; details: rated 14 days after application, 0 = no damage, 100 = complete death
# Summary of the method: as §1
# [10] = system: large crabgrass (Digitaria sanguinalis, DIGSA); assay: as above; details: rated 14 days after application, 0 = no damage, 100 = complete death
# Summary of the method: as §1
# [11] = system: common ragweed (Ambrosia artemisizfolia L., AMBEL); assay: as above; details: rated 14 days after application, 0 = no damage, 100 = complete death
# Summary of the method: as §1
# [12] = system: johnsongrass (Sorghum halepense, SORHA); assay: as above; details: rated 14 days after application, 0 = no damage, 100 = complete death
# Summary of the method: as §1
# [13] = system: ivyleaf morningglory (Ipomoea hederacea, IPOHE); assay: as above; details: rated 14 days after application, 0 = no damage, 100 = complete death
# Summary of the method: as §1
# [14] = system: redroot pigweed (Amaranthus retroflexus, AMARE); assay: as above; details: rated 14 days after application, 0 = no damage, 100 = complete death
# Summary of the method: as §1
# [15] = system: barnyardgrass (Echinochloa crus-galli, ECHCG); assay: Post-emerge test, greenhouse herbicide activity screening; details: post-emerge, 14 days after application, rating scale 0-100
# Summary of the method: (§3)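 Fourteen days after spraying, crop and weed injury was graded visually from 0, no effect, to 100, every plant dead. Test substances were dissolved in acetone and applied at 15–1000 g ai/ha with a flat-fan nozzle. Application was either pre-emergence, one day after sowing, or post-emergence at the 2–3 leaf stage.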
# [16] = system: sicklepod (Cassia obtusifolia, CASOB); assay: as above; details: post-emerge, 14 days after application, rating scale 0-100
# Summary of the method: as §3
# [17] = system: lambsquarters (Chenopodium album, CHEAL); assay: as above; details: post-emerge, 14 days after application, rating scale 0-100
# Summary of the method: as §3
# [18] = system: velvetleaf (Abutilon theophrasti, ABUTH); assay: as above; details: post-emerge, 14 days after application, rating scale 0-100
# Summary of the method: as §3
# [19] = system: large crabgrass (Digitaria sanguinalis, DIGSA); assay: as above; details: post-emerge, 14 days after application, rating scale 0-100
# Summary of the method: as §3
# [20] = system: common ragweed (Ambrosia artemisizfolia L., AMBEL); assay: as above; details: post-emerge, 14 days after application, rating scale 0-100
# Summary of the method: as §3
# [21] = system: johnsongrass (Sorghum halepense, SORHA); assay: as above; details: post-emerge, 14 days after application, rating scale 0-100
# Summary of the method: as §3
# [22] = system: ivyleaf morningglory (Ipomoea hederacea, IPOHE); assay: as above; details: post-emerge, 14 days after application, rating scale 0-100
# Summary of the method: as §3
# [23] = system: redroot pigweed (Amaranthus retroflexus, AMARE); assay: as above; details: post-emerge, 14 days after application, rating scale 0-100
# Summary of the method: as §3
smiles,measurement,setting,value
COc1c(Cl)cc(F)c(-n2c(=O)cc(C(F)(F)F)n(C)c2=O)c1N(C(=O)c1ccc(F)c(F)c1)C(=O)c1ccc(F)c(F)c1 [2-49],"Pre-emerge phytotoxicity rating (0-100), crop damage, CORN",[1]; 63 g ai/ha,0
same,"Pre-emerge phytotoxicity rating (0-100), crop damage, CORN",[1]; 250 g ai/ha,15
same,"Pre-emerge phytotoxicity rating (0-100), crop damage, RICE",[2]; 63 g ai/ha,20
same,"Pre-emerge phytotoxicity rating (0-100), crop damage, RICE",[2]; 250 g ai/ha,60
same,phytotoxicity rating CORN,[3]; 63 g ai/ha,0
same,phytotoxicity rating CORN,[3]; 250 g ai/ha,10
same,phytotoxicity rating RICE,[4]; 63 g ai/ha,0
same,phytotoxicity rating RICE,[4]; 250 g ai/ha,10
same,"Pre-emerge Herbicidal Activity, phytotoxicity rating (0-100), ECHCG",[5]; 63 g ai/ha,0
same,"Pre-emerge Herbicidal Activity, phytotoxicity rating (0-100), ECHCG",[5]; 250 g ai/ha,10
same,"Pre-emerge Herbicidal Activity, phytotoxicity rating (0-100), SETVI",[6]; 63 g ai/ha,80
same,"Pre-emerge Herbicidal Activity, phytotoxicity rating (0-100), SETVI",[6]; 250 g ai/ha,95
same,"Pre-emerge Herbicidal Activity, phytotoxicity rating (0-100), CASOB",[7]; 63 g ai/ha,0
same,"Pre-emerge Herbicidal Activity, phytotoxicity rating (0-100), CASOB",[7]; 250 g ai/ha,100
same,"Pre-emerge Herbicidal Activity, phytotoxicity rating (0-100), CHEAL",[8]; 63 g ai/ha,100
same,"Pre-emerge Herbicidal Activity, phytotoxicity rating (0-100), CHEAL",[8]; 250 g ai/ha,100
same,"Pre-emerge Herbicidal Activity, phytotoxicity rating (0-100), ABUTH",[9]; 63 g ai/ha,100
same,"Pre-emerge Herbicidal Activity, phytotoxicity rating (0-100), ABUTH",[9]; 250 g ai/ha,100
same,"Pre-emerge Herbicidal Activity, phytotoxicity rating (0-100), DIGSA",[10]; 63 g ai/ha,20
same,"Pre-emerge Herbicidal Activity, phytotoxicity rating (0-100), DIGSA",[10]; 250 g ai/ha,100
same,"Pre-emerge Herbicidal Activity, phytotoxicity rating (0-100), AMBEL",[11]; 63 g ai/ha,100
same,"Pre-emerge Herbicidal Activity, phytotoxicity rating (0-100), AMBEL",[11]; 250 g ai/ha,100
same,"Pre-emerge Herbicidal Activity, phytotoxicity rating (0-100), SORHA",[12]; 63 g ai/ha,0
same,"Pre-emerge Herbicidal Activity, phytotoxicity rating (0-100), SORHA",[12]; 250 g ai/ha,0
same,"Pre-emerge Herbicidal Activity, phytotoxicity rating (0-100), IPOHE",[13]; 63 g ai/ha,0
same,"Pre-emerge Herbicidal Activity, phytotoxicity rating (0-100), IPOHE",[13]; 250 g ai/ha,90
same,"Pre-emerge Herbicidal Activity, phytotoxicity rating (0-100), AMARE",[14]; 63 g ai/ha,100
same,"Pre-emerge Herbicidal Activity, phytotoxicity rating (0-100), AMARE",[14]; 250 g ai/ha,100
same,phytotoxicity rating ECHCG,[15]; 63 g ai/ha,0
same,phytotoxicity rating ECHCG,[15]; 250 g ai/ha,0
same,phytotoxicity rating CASOB,[16]; 63 g ai/ha,30
same,phytotoxicity rating CASOB,[16]; 250 g ai/ha,50
same,phytotoxicity rating CHEAL,[17]; 63 g ai/ha,60
same,phytotoxicity rating CHEAL,[17]; 250 g ai/ha,60
same,phytotoxicity rating ABUTH,[18]; 63 g ai/ha,90
same,phytotoxicity rating ABUTH,[18]; 250 g ai/ha,100
same,phytotoxicity rating DIGSA,[19]; 63 g ai/ha,0
same,phytotoxicity rating DIGSA,[19]; 250 g ai/ha,0
same,phytotoxicity rating AMBEL,[20]; 63 g ai/ha,50
same,phytotoxicity rating AMBEL,[20]; 250 g ai/ha,40
same,phytotoxicity rating SORHA,[21]; 63 g ai/ha,0
same,phytotoxicity rating SORHA,[21]; 250 g ai/ha,0
same,phytotoxicity rating IPOHE,[22]; 63 g ai/ha,70
same,phytotoxicity rating IPOHE,[22]; 250 g ai/ha,70
same,phytotoxicity rating AMARE,[23]; 63 g ai/ha,20
same,phytotoxicity rating AMARE,[23]; 250 g ai/ha,40
COc1c(Cl)cc(F)c(-n2c(=O)cc(C(F)(F)F)n(C)c2=O)c1NC(=O)c1ccc(OC(F)(F)F)cc1 [2-72],"Pre-emerge phytotoxicity rating (0-100), crop damage, CORN",[1]; 63 g ai/ha,0
same,"Pre-emerge phytotoxicity rating (0-100), crop damage, CORN",[1]; 250 g ai/ha,5
same,"Pre-emerge phytotoxicity rating (0-100), crop damage, RICE",[2]; 63 g ai/ha,10
same,"Pre-emerge phytotoxicity rating (0-100), crop damage, RICE",[2]; 250 g ai/ha,40
same,phytotoxicity rating CORN,[3]; 63 g ai/ha,0
same,phytotoxicity rating CORN,[3]; 250 g ai/ha,10
same,phytotoxicity rating RICE,[4]; 63 g ai/ha,0
same,phytotoxicity rating RICE,[4]; 250 g ai/ha,20
same,"Pre-emerge Herbicidal Activity, phytotoxicity rating (0-100), ECHCG",[5]; 63 g ai/ha,0
same,"Pre-emerge Herbicidal Activity, phytotoxicity rating (0-100), ECHCG",[5]; 250 g ai/ha,50
same,"Pre-emerge Herbicidal Activity, phytotoxicity rating (0-100), SETVI",[6]; 63 g ai/ha,60
same,"Pre-emerge Herbicidal Activity, phytotoxicity rating (0-100), SETVI",[6]; 250 g ai/ha,100
same,"Pre-emerge Herbicidal Activity, phytotoxicity rating (0-100), CASOB",[7]; 63 g ai/ha,30
same,"Pre-emerge Herbicidal Activity, phytotoxicity rating (0-100), CASOB",[7]; 250 g ai/ha,90
same,"Pre-emerge Herbicidal Activity, phytotoxicity rating (0-100), CHEAL",[8]; 63 g ai/ha,100
same,"Pre-emerge Herbicidal Activity, phytotoxicity rating (0-100), CHEAL",[8]; 250 g ai/ha,100
same,"Pre-emerge Herbicidal Activity, phytotoxicity rating (0-100), ABUTH",[9]; 63 g ai/ha,100
same,"Pre-emerge Herbicidal Activity, phytotoxicity rating (0-100), ABUTH",[9]; 250 g ai/ha,100
same,"Pre-emerge Herbicidal Activity, phytotoxicity rating (0-100), DIGSA",[10]; 63 g ai/ha,30
same,"Pre-emerge Herbicidal Activity, phytotoxicity rating (0-100), DIGSA",[10]; 250 g ai/ha,100
same,"Pre-emerge Herbicidal Activity, phytotoxicity rating (0-100), AMBEL",[11]; 63 g ai/ha,0
same,"Pre-emerge Herbicidal Activity, phytotoxicity rating (0-100), AMBEL",[11]; 250 g ai/ha,50
same,"Pre-emerge Herbicidal Activity, phytotoxicity rating (0-100), SORHA",[12]; 63 g ai/ha,0
same,"Pre-emerge Herbicidal Activity, phytotoxicity rating (0-100), SORHA",[12]; 250 g ai/ha,50
same,"Pre-emerge Herbicidal Activity, phytotoxicity rating (0-100), IPOHE",[13]; 63 g ai/ha,20
same,"Pre-emerge Herbicidal Activity, phytotoxicity rating (0-100), IPOHE",[13]; 250 g ai/ha,20
same,"Pre-emerge Herbicidal Activity, phytotoxicity rating (0-100), AMARE",[14]; 63 g ai/ha,100
same,"Pre-emerge Herbicidal Activity, phytotoxicity rating (0-100), AMARE",[14]; 250 g ai/ha,100
same,phytotoxicity rating ECHCG,[15]; 63 g ai/ha,0
same,phytotoxicity rating ECHCG,[15]; 250 g ai/ha,0
same,phytotoxicity rating CASOB,[16]; 63 g ai/ha,70
same,phytotoxicity rating CASOB,[16]; 250 g ai/ha,95
same,phytotoxicity rating CHEAL,[17]; 63 g ai/ha,70
same,phytotoxicity rating CHEAL,[17]; 250 g ai/ha,80
same,phytotoxicity rating ABUTH,[18]; 63 g ai/ha,100
same,phytotoxicity rating ABUTH,[18]; 250 g ai/ha,100
same,phytotoxicity rating DIGSA,[19]; 63 g ai/ha,0
same,phytotoxicity rating DIGSA,[19]; 250 g ai/ha,0
same,phytotoxicity rating AMBEL,[20]; 63 g ai/ha,70
same,phytotoxicity rating AMBEL,[20]; 250 g ai/ha,60
same,phytotoxicity rating SORHA,[21]; 63 g ai/ha,0
same,phytotoxicity rating SORHA,[21]; 250 g ai/ha,0
same,phytotoxicity rating IPOHE,[22]; 63 g ai/ha,50
same,phytotoxicity rating IPOHE,[22]; 250 g ai/ha,60
same,phytotoxicity rating AMARE,[23]; 63 g ai/ha,70
same,phytotoxicity rating AMARE,[23]; 250 g ai/ha,90
